The record followed here is ChEMBL document CHEMBL1130460, “ADA-Bypass by lipophilic cycloSal-ddAMP pro-nucleotides A second example of the efficiency of the cycloSal-Concept” (Bioorg Med Chem Lett, 1997).

Structures are written as SMILES.

The subject of series [1] is CCRF-CEM. The series is described as follows: Cytotoxic activity was evaluated against CEM/O cells; No activity up to > 250 uM. The class given is functional, cell-based, Homo sapiens.
Series [2] relates to CCRF-CEM. Briefly: Effective concentration of compound against HIV-1 infected CEM/O cells; No activity up to > 250 uM. The class given is functional, cell-based, Homo sapiens.
The test system of series [3] is CCRF-CEM. The series is described as follows: Effective concentration of compound against HIV-2 infected CEM/O cells; No activity up to > 250 uM. The class given is functional, cell-based, Homo sapiens.
Series [4] can be described thus: Partition coefficient was measured in 1-octanol/phosphate buffer (pH 6.8). The class given is physicochemical.
Series [5] has as its system CCRF-CEM. The series is described as follows: Cytotoxic activity was evaluated against CEM/O cells. The class given is functional. The following applies: Homo sapiens.
Series [6] concerns CCRF-CEM. Briefly: Effective concentration of compound against HIV-1 infected CEM/O cells. The class given is functional, cell-based. The note with it: Homo sapiens.
Series [7] deals with CCRF-CEM. Briefly: Effective concentration of compound against HIV-2 infected CEM/O cells. The class given is functional, cell-based. The note with it: Homo sapiens.
The nature of series [8]: Hydrolysis half-life (t1/2) in phosphate buffer at pH 7.3. The class given is ADME.

Regarding `Cc1cccc(O)c1CO`, the EC50 entry in the series with CCRF-CEM [1], in the series on CCRF-CEM [2] and with CCRF-CEM [3] was “Not Active” each time.

Turning to `OCc1ccccc1O` [SALICYL ALCOHOL], the concentration giving a half-maximal response (EC50) entry in the series with CCRF-CEM [1], in the series with CCRF-CEM [2] and in the series on CCRF-CEM [3] was “Not Active” each time.

As to `Nc1ncnc2c1ncn2[C@H]1CC[C@@H](CO)O1`, in series [4], the pH-dependent lipophilicity (logD) is -0.28. In addition, the 50% cytotoxic concentration (CC50) in the series with CCRF-CEM [5] turned out to be 200000 nM. For the same compound, the results for the half-maximal effective concentration (EC50) with CCRF-CEM [6] and with CCRF-CEM [7] were 3670 nM and 5330 nM, respectively.

In turn, `Nc1ncnc2c1ncn2C1CCC(COP2(=O)OCc3ccccc3O2)O1` (stereo not drawn) showed a logD in series [4] of 0.54. In series [8], this compound had a half-life of 8.2 h. This compound yielded a half-maximal cytotoxic concentration (CC50) in the series with CCRF-CEM [5] of 21900 nM. Also, the EC50 stood at 120 nM in the series with CCRF-CEM [6] and 110 nM with CCRF-CEM [7].

On to `COc1ccc2c(c1)COP(=O)(OCC1CCC(n3cnc4c(N)ncnc43)O1)O2` (stereo not drawn), for which the log distribution coefficient (logD) in series [4] came out at 0.61. The compound further had a half-life in series [8] of 14 h. This compound also came in with a CC50 with CCRF-CEM [5] of 30400 nM. Besides, the EC50 in the series with CCRF-CEM [6] came to 65 nM; in the series with CCRF-CEM [7] it was 90 nM.

For the compound `Cc1cccc2c1OP(=O)(OCC1CCC(n3cnc4c(N)ncnc43)O1)OC2` (stereo not drawn), the logD in series [4] stood at 0.91. In addition, in series [8], the half-life was 35.1 h. Moreover, the CC50 in the series on CCRF-CEM [5] turned out to be 9540 nM. The EC50 in the series with CCRF-CEM [6] was 30 nM; in the series with CCRF-CEM [7], 35 nM.

For `COc1ccc(CO)c(O)c1`, the concentration for a half-maximal effect (EC50) result in the series on CCRF-CEM [1], with CCRF-CEM [2] and in the series with CCRF-CEM [3] was “Not Active” throughout.
